Data set [1] deals with T1, Glucose-dependent insulinotropic receptor (Homo sapiens, UniProt Q8TDV5).
T1 sequence (Q8TDV5 whole entry): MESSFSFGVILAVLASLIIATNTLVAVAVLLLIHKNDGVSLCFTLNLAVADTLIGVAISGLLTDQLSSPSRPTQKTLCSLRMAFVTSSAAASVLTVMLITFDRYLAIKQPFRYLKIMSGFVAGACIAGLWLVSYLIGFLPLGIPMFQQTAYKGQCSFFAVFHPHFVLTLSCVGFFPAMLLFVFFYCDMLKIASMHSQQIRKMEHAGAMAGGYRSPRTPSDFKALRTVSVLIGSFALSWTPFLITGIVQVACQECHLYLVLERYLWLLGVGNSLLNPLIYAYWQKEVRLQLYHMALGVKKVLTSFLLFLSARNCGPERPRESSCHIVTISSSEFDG
In words: Agonist activity at human GPR119 expressed in HEK293 cells assessed as increase in cAMP level incubated for 45 mins by cAMP HTRF assay. In kind it is functional, cell-based. (Cyclic AMP is a second messenger, typically raised through Gs and lowered through Gi signalling.)

A short description of data set [2]: Lipophilicity, logD of compound in octanol and buffer in pH 7.4 incubated for 30 mins under shaking condition by LC/UV analysis. The class given is physicochemical.
Data set [3] can be described thus: Apparent permeability across apical to basolateral side in MDCK cells incubated at 10 uM. The class given is ADME, cell-based, Canis lupus familiaris. Particulars: dog.
A short description of data set [4]: Lipophilicity, logD of compound at pH 7.4 by Shake-flask distribution coefficient method. The class given is physicochemical. Particulars: octanol/water.
Data set [5] in a line: Dissociation constant, pKa of compound. In kind it is physicochemical.
A short description of data set [6]: Intrinsic clearance in rat hepatocytes assessed per 10^6 cells. The class given is ADME, cell-based, Hepatocyte. Particulars: read-out: CLH.
A short description of data set [7]: Apparent permeability in human Caco2 cells at 10 uM. The class given is ADME, cell-based. Particulars: Caco-2. Background: Passage across Caco-2 layers is used to estimate intestinal permeability.
Data set [8] is described as follows: Intrinsic clearance in human liver microsomes. Particulars: read-out: CLH. The class given is ADME, Microsome.
The nature of data set [9]: Intrinsic clearance in human hepatocytes assessed per 10^6 cells. Particulars: read-out: CLH. The class given is ADME, cell-based, Hepatocyte.

Where only a bound is given, the exact number is not on record here.

A word on the EC50: it is the midpoint of the concentration-response curve. Usually logD stands for lipophilicity at a set pH, counting ionised and neutral species. Low readings indicate a more hydrophilic compound, high ones a more lipophilic compound. Usually Papp A→B stands for how fast a substance crosses the layer from the apical side. `CC(C)(C)OC(=O)N1CC2(C1)CN(c1ncc(OCc3ccncc3C#N)cn1)C2`: the EC50 in [1] came out at 16 µM. Moreover, in data set [2], the logD at 0.5 h was found to be 2.5. For the same compound, in data set [3], the Papp A→B at 10 µM was determined as 17 ×10⁻⁶ cm/s.
As a reminder, the pKa is the pH at which an ionisable group is half protonated. Low readings indicate a group that gives up its proton readily, high ones a group that holds its proton tightly. By Papp is commonly meant the rate of passage across a membrane or cell layer, normalised by area and donor concentration. In data set [4], `c1nc(N[C@H]2CC[C@H](N3CC4(COC4)C3)CC2)c2c(C3CCOCC3)c[nH]c2n1` showed a logD of 0.8. The same compound displayed a pKa in [5] of 8.2. Besides, the hepatocyte CLint was 8 µL/min/1e6 cells in data set [6] and below 1 µL/min/1e6 cells in data set [9]. For the same compound, in data set [7], the Papp at 10 µM worked out at 4.1 ×10⁻⁶ cm/s. The microsomal CLint in [8] is below 3 µL/min/mg.
